US11925643B2, “Toll-like receptor 4 (TLR4) inhibitors and use thereof” (MOR RESEARCH APPLICATIONS LTD., priority 2018, dated 2024)
Residues, ends and D or L forms follow the SMILES beside them.

Columns and labels:
[1] = tested on: primary cardiomyocytes; assay: CK and LDH release by primary cardiomyocytes under hypoxia (MI like); format: cell-based, Rat
Description: (§1) Rat hearts (1-2 days old) were removed under sterile conditions and washed three times in phosphate-buffered saline (PBS) to remove excess blood cells. The hearts were minced and then gently agitated in RBD (a solution of proteolytic enzymes (Biological Institute, Ness-Ziona, Israel) prepared from fig tree extract, and diluted 1:100 in Ca^2+- and Mg^2+-free PBS) for a few cycles of 10 min each. Dulbecco's modified Eagle's medium (Biological Industries, Kibbutz Beit Haemek, Israel) containing 10% horse serum was added to supernatant suspensions containing the dissociated cells. The mixture was centrifuged at 1400 rpm for 4 min. The supernatant phase was discarded, and the cells were re-suspended. The cell suspension was diluted to 1.0×10^6 cells/ml, unless stated otherwise, and 1.5 ml of the suspension was placed in 35-mm plastic culture dishes collagen- or gelatin-coated, or on coated cover glasses. The cultures were incubated in a humidified atmosphere of 5% CO2 and 95% air at 37° C.
Using a vacuum pump, the oxygen rich air was evacuated from an incubator containing plates with cell cultures, and a 100% Argon atmosphere was let in, while maintaining a temperature of 37° C. The cell cultures were washed with PBS twice to remove glucose from the medium. Hypoxic treated cells were cultures in PBS without glucose. These cells lasted for 180 minutes.
(§2) Primary cardiomyocytes which were obtained by method described above, were treated with exemplary decoy peptides described herein. After 30 minutes of incubation, sepsis like (LPS treatment for 6 hours), or myocardial infarction (MI) like (hypoxia for 3 hours) conditions were imposed to measure the release of CK and LDH to the medium and determine the potential cardioprotective effect of the tested decoy peptides. Cytotoxicity and level of cell damage were assessed by spectrophotometric measurement of lactate dehydrogenase (LDH) and creatine kinase (CK) activities (at 30° C.). Results are presented as CK and LDH release in arbitrary units (a.u.)
(§3) Activity of LDH and CK was determined in the cell-culture medium (25 μl) transferred into 96-well plates, using commercial L-LDH/CK kits (such as those manufactured, e.g., by Sigma-Aldrich, BioVision™ or Thermo Fisher Scientific®).
(§4) Primary cardiomyocytes were treated with peptides and peptidomimetics of SEQ ID NOs:1-7 provided at concentrations ranging from 1 μM to 20 μM. Following 30 minutes of incubation, sepsis like (LPS treatment for 6 hours) or MI like (hypoxia for 3 hours) conditions were induced to determine the potential cardioprotective effect of the tested compounds. Creatine kinase (CK) and lactate dehydrogenase (LDH) activity were assayed to determine the level of cellular damage and cell protection effect. The experimental procedure is described in Materials and Methods above. Results are presented as CK and LDH release in arbitrary units (a.u.).

[2] = tested on: IκB; assay: IκB protein level by Western blot in hypoxic cardiomyocytes; format: cell-based
Description: (§5) Frozen tissue/cell cultures of liver or heart were pulverized under liquid nitrogen and placed in a homogenization buffer ([…] phosphate buffer, […] sucrose, […] EDTA, […] phenylmethylsulfonyl fluoride (PMSF), and 0.1% vol/vol tergitol, pH 7.5). Myocytes from cell cultures were homogenized in lysis buffer.
(§6) Homogenates were centrifuged at 12K rpm for 10 minutes at 4° C., the supernatant was isolated, and protein levels were visualized by immunoblotting with antibodies. Briefly, proteins (60 μg/sample) were separated using SDS-PAGE gel (12%-15%) under denaturing conditions and electro-transferred (blotted) onto nitrocellulose (Bio-Rad) for 1 hour at 100 V. Membranes were blocked with 5% nonfat milk in Tris-buffered saline with 0.1% Tween® 20 (TBST) for 1 hour at room temperature. Primary antibodies were used at a 1:200-1:1000 concentration in TBST with 5% nonfat milk overnight at 4° C. Immunodetection of β-actin/GPDH was performed as an internal control. Dye 800/680 secondary antibodies were added at a concentration of 1:15000 for 1 hour at room temperature (LI-COR® Biosciences, NE, USA). Detection was carried out with LI-CORE® Odyssey® imaging system. Quantification of signals was carried out with the Odyssey® program.
The mechanism of action of peptidomimetics of SEQ ID NOs:1, 2 and 12 was studied in vitro in cardiomyocytes, under hypoxic conditions, by determining the expression level of the IκB gene, which is regulated by activation of TLR4, and by measuring the TLR4 mRNA levels. In addition, TLR4 expression level was measured in macrophage (derived from monocytes) treated with LPS.
IκB protein level was determined by Western blot as described in Material and Methods. The amount of IκB was normalized via-a-vis the amount of β-actin serving as the loading control (the β-actin is coded by a housekeeping gene and its level is expected to remain constant under any experimental conditions).

[3] = tested on: primary cardiomyocytes; assay: CK and LDH release by primary cardiomyocytes under LPS treatment (sepsis like); format: cell-based, Rat; settings: LPS treatment; 20 μM
Description: as §1, §2, §3, §4

[4] = molecular target: T1, TLR4 (Mus musculus, UniProt Q9QUK6); assay: TLR4 protein level by Western blot in hypoxic cardiomyocytes; format: cell-based; settings: 20 μM, hypoxic conditions
T1 construct: endogenous in cells; host or cells: primary cardiomyocytes under hypoxia
T1 sequence (Q9QUK6 26-835): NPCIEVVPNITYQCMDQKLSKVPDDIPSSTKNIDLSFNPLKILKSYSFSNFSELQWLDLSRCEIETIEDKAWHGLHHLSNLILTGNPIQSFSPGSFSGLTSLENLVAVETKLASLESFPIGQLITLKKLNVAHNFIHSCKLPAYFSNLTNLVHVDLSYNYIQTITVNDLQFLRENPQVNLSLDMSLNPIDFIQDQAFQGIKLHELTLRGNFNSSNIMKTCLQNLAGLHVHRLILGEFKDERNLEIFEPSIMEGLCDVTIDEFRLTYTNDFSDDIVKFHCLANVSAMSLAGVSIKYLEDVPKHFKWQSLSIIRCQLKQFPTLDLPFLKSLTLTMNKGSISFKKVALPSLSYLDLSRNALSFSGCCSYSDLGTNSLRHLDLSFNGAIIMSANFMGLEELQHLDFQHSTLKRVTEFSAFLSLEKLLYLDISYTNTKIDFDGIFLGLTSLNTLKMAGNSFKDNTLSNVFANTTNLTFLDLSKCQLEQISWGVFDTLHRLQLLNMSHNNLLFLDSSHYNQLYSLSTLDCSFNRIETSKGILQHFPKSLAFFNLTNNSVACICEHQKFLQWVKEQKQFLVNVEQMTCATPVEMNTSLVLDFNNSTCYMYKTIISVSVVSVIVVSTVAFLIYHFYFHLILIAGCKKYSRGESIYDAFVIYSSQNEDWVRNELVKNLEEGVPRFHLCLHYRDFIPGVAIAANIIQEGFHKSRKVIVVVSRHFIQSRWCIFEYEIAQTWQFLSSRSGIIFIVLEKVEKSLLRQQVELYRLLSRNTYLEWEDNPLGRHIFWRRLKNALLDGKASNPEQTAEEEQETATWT
Description: as §5
as §6, with “program. […]” for “program.”

Compound	CK release ([1]; 20 μM)	LDH release ([1]; 20 μM)	inhibition of decrease of IκB protein level ([2]; 20 μM, compared to hypoxic cells not treated)	CK release [3]	LDH release [3]	decrease of TLR4 protein expression [4]	minimal effective concentration (cardioprotective effect, CK and LDH release) [1]	IκB level ([2]; normalized to β-actin)	decrease of TLR4 protein expression relative to PM6 ([4]; positive control)
CCCCCCCCNc1nc(=O)n(Cc2ccccc2)cc1C [PM6, 1-benzyl-5-methyl-4-(octylamino)pyrimidin-2(1H)-one]	significant reduction	significant reduction	roughly 7 fold	no significant effect	no significant effect	7.6 fold			
CC[C@H](C)[C@H](NC(C)=O)C(=O)N[C@H](C(=O)N[C@@H](Cc1ccccc1)C(=O)N[C@@H](C)C(N)=O)C(C)C [SEQ ID NO:1, (2S,3S)-2-acetamido-N-((S)-1-(((S)-1-(((S)-1-amino-1-oxopropan-2-yl)amino)-1-oxo-3-phenylpropan-2-yl)amino)-3-methyl-1-oxobutan-2-yl)-3-methylpentanamide] (Ac-IVFA-NH2)				subnormal levels	subnormal levels		1 µM	high levels	same extent
